The values that follow come from ChEMBL document CHEMBL5356982, “Truncated derivatives of amphidinol 3 reveal the functional role of polyol chain in sterol-recognition and pore formation” (Bioorg Med Chem Lett, 2024).

Activity calls are given as the source filed them. The rule behind the calls is not given here.

Assay [1] addresses Lipid bilayer. Kind of assay: Binding affinity to DOPC liposomes assessed as dissociation constant for first step at 50 uM and measured from 300 to 600 sec by SPR method.
The target in assay [2] is Lipid bilayer. Kind of assay: Binding affinity to 10% Ergosterol containing DOPC liposomes assessed as dissociation constant for second step at 50 uM and measured from 300 to 600 sec by SPR method.
Assay [3] concerns the target Lipid bilayer. Kind of assay: Binding affinity to DOPC liposomes assessed as dissociation constant at equilibrium at 50 uM and measured from 300 to 600 sec by SPR method.
The target in assay [4] is Lipid bilayer. Kind of assay: Binding affinity to 10% Ergosterol containing DOPC liposomes assessed as dissociation constant at equilibrium at 50 uM and measured from 300 to 600 sec by SPR method.
Assay [5] has as its system Lipid bilayer. Kind of assay: Induction of pore formation in DOPC liposomes assessed as calcein dye leakage by measuring calcein fluorescence at 27 uM by fluorescence microplate reader analysis.
Assay [6] addresses Lipid bilayer. The assay can be described thus: Binding affinity to 10% Ergosterol containing DOPC liposomes assessed as dissociation constant for first step at 50 uM and measured from 300 to 600 sec by SPR method.
The next assay relates to Aspergillus niger. Kind of assay: Antifungal activity against Aspergillus niger NBRC 31012 assessed as inhibition zone incubated for 2 days by disk diffusion method. Type of assay: functional. As to conditions: time 2 day.
Assay [7] deals with Lipid bilayer. Kind of assay: Binding affinity to DOPC liposomes assessed as dissociation constant for second step at 50 uM and measured from 300 to 600 sec by SPR method.
In assay [8] the test system is Lipid bilayer. The assay can be described thus: Induction of pore formation in 10% Ergosterol containing DOPC liposomes assessed as calcein dye leakage by measuring calcein fluorescence by fluorescence microplate reader analysis.
The test system of assay [9] is Lipid bilayer. Kind of assay: Binding affinity to DOPC liposomes at 50 uM and measured upto 600 sec by SPR method.
The test system of assay [10] is Lipid bilayer. Kind of assay: Binding affinity to 10% Ergosterol containing DOPC liposomes at 50 uM and measured upto 600 sec by SPR method.
Assay [11] relates to Lipid bilayer. Kind of assay: Induction of pore formation in 10% Ergosterol containing DOPC liposomes assessed as calcein dye leakage by measuring calcein fluorescence at 27 uM by fluorescence microplate reader analysis.
The subject of assay [12] is Lipid bilayer. Kind of assay: Induction of pore formation in 10% Ergosterol containing DOPC liposomes assessed as calcein dye leakage by measuring calcein fluorescence at 10 uM by fluorescence microplate reader analysis.

Consider `C=C/C=C/CC/C=C/C=C/C=C/CC/C=C/[C@H](O)[C@H](O)[C@@H]1O[C@@H]([C@H](O)[C@H](O)C(=C)CC[C@@H](O)[C@@H]2C[C@H](O)[C@H](O)[C@@H]([C@H](O)[C@@H](O)/C=C(\C)CC[C@H](O)C[C@H](O)[C@H](O)[C@@H](C)C[C@H](O)[C@@H](O)CCCCC[C@@H](O)CCC[C@@H](O)/C=C/C[C@@H](O)/C=C/C[C@@H](O)CO)O2)C[C@@H](O)[C@H]1O`, for which the Kd came out at 980 µM on Lipid bilayer [1]; 2.4 µM at Lipid bilayer [2]; 6.9 µM on Lipid bilayer [3]; 0.00012 µM on Lipid bilayer [4]; 51 µM on Lipid bilayer [6]; 6300 µM at Lipid bilayer [7]. Besides, the result in the assay on Lipid bilayer [5] was Active. Moreover, in the assay with Aspergillus niger, the MIC came to 8 µg. Moreover, in the assay on Lipid bilayer [8], the EC50 was 2.96 µM.
For the compound `C=C/C=C/CC/C=C/C=C/C=C/CC/C=C/[C@H](O)[C@H](O)[C@@H]1O[C@@H]([C@H](O)[C@H](O)C(=C)CC[C@@H](O)[C@@H]2C[C@H](O)[C@H](O)[C@@H]([C@H](O)[C@@H](O)CO)O2)C[C@@H](O)[C@H]1O`, the result with Lipid bilayer [9], in the assay with Lipid bilayer [10] and in the assay on Lipid bilayer [11] was inactive. Moreover, the MIC in the assay with Aspergillus niger was greater than 300 µg.
Regarding `C=C/C=C/CC/C=C/C=C/C=C/CC/C=C/[C@H](O)[C@H](O)[C@@H]1O[C@@H]([C@H](O)[C@H](O)C(=C)CC[C@@H](O)[C@@H]2C[C@H](O)[C@H](O)[C@@H]([C@H](O)[C@@H](O)/C=C(\C)CC[C@H](O)C[C@H](O)[C@H](O)[C@@H](C)CCO)O2)C[C@@H](O)[C@H]1O`, at Lipid bilayer [2], the step-2 equilibrium ratio turned out to be 0.044. Moreover, the result in the assay on Lipid bilayer [9] and with Lipid bilayer [11] was inactive. Besides, the outcome in the assay with Lipid bilayer [12] was Active. Moreover, the Kd at Lipid bilayer [4] was found to be 1 µM; at Lipid bilayer [6], 25 µM. Also, the MIC in the assay with Aspergillus niger stood at 20 µg.
